Measured values published in patent US20060262149A1, “Ink jet ink and recording material” (priority 2005, published 2006).

Assays:
[1] = Light fastness of magenta ink jet prints on stabilizer-treated Konica QP paper, 100% print density (Example 5); conditions: HP DeskJet 970 Cxi, stabilizer 650-700 mg/m^2 on Konica QP paper, office fluorescent lighting, None = 25.73
Method: (§1) A resin-coated paper impregnated with inorganic adsorbent particles (Konica QP Photoglossy ink jet paper, Konica Corp.) is purchased. On the ink-receiving layer, a 0.8 wt % methanol solution of the instant compounds is applied in an amount to achieve 650-700 mg/m^2. The paper is allowed to dry under ambient temperature and pressure for 24 hours.
Separately, test patterns (magenta) are printed on the treated sheets using a Hewlett Packard DeskJet 970 Cxi printer at 100% print density. The obtained prints are left to dry at ambient temperature and pressure for 24 hours.
(§2) Color densities and CIEL*a*b coordinates before and after exposure are measured using X-Rite 938 Spectrodensitometer. Exposures are carried out using normal office fluorescent lighting. The change in color is given by Delta E (DE) which is calculated by: DE=[(DL*)^2+(Da*)^2+(Db*)^2]^1/2

[2] = Light fastness of cyan, magenta and yellow ink jet prints on stabilizer-treated Konica QP paper, 50% print density (Example 6); conditions: HP DeskJet 970 Cxi, stabilizer 650-700 mg/m^2, office fluorescent lighting; for DE for magenta after 4 weeks: None = 20.16; for DE for yellow after 4 weeks: None = 4.68
Method: as §2
as §1, with “hours. Separately, test patterns (cyan, magenta and yellow) are printed on the treated sheets using a Hewlett Packard DeskJet 970 Cxi printer at 50% print density. The obtained prints are left to dry at ambient temperature and pressure for 24 hours.” for “hours.”
Color densities and CIEL*a*b coordinates before and after exposure are measured using X-Rite 938 Spectrodensitometer. Exposures are carried out using normal office fluorescent lighting.

Compound	DE for magenta after 4 weeks [1]	DE for magenta after 4 weeks [2]	DE for yellow after 4 weeks [2]	DE for cyan after 4 weeks ([2]; cyan, None = 7.29)
CC(C)(O)CON1C(C)(C)CC(O)CC1(C)C [Instant Example 1]	18.39	17.82	1.81	–
CC(C)(O)CON1C(C)(C)CC(O)CC1(C)C [Instant Example 2]	20.89	16.71	2.48	6.64
